In patent US20070167492A1, “Molluscicidal agents” (priority 2003, published 2007):

Key:
[1] = tested on: Deroceras reticulatum (grey field slug); test: Example 2: pot re-test, treated winter wheat seed with 5 adult slugs per pot, 7 days; format: in vivo; settings: for number of damaged seeds relative to the untreated seed: two days after the start; for number of fecal pellets per pot relative to the untreated control / plants present relative to the untreated seed: after 2, 3 and 7 days
Text: Based on the results of the experiment described in Example 1, a selection was made from the various test numbers of that experiment for re-testing, partly to confirm the conclusions of that experiment and to test the unexpected outcome of some test compounds.
The selection of test numbers (Test No.) used in the present experiment relative to those of the experiment described in Example 1 is shown in Table 7.
The same seeds as described in Example 1 were sown in earthenware pots with an internal diameter of 20 cm and a height of 18 cm, filled with 7 cm of potting soil (Trio BV, Weesp, The Netherlands) and with a top 2 cm of white quartz sand. A total of 40 winter wheat seeds was placed in each pot, in a pattern of concentric circles on top of the quartz sand, the germ of the seed facing upwards. To each pot a total of 5 adult specimens of the test slug Deroceras reticulatum (grey field slug) were added. The pots were incubated at 18-19° C. with a relative humidity of ±95% and light regime of ±18 hours light/6 hours dark, without artificial lighting. The pots were not irrigated overhead. In total, 4 parallel tests were performed for each test.
The number of damaged seeds was, the number of plants present (germinated and not eaten or damaged by the slugs), the number of dead slugs and of the number of fecal pellets were determined after 2, 3 and 7 days following the addition of the slugs.
The data were statistically analysed by using F-tests (α=0.05) and pair-wise Student-tests.

[2] = tested on: Winter wheat (Kampa race) seeds; test: Seed germination test of treated winter wheat seeds (rolled in paper); format: in vivo; settings: 3x50 seeds, 6 days at 22° C.
In short: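 Seeds were disinfected with fludioxonil-containing Beret Gold (2 ml per kg seed) and coated with Sepiret® for formulations unsuitable for coating. Germination of 3×50 seeds rolled in paper was scored after 6 days at continuous 22° C. under a 16 hours light regime.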

[3] = Example 2, 2 ml formulated per kg seed, 2 days after sowing
[4] = Example 2, 2 ml formulated per kg seed, 3 days after sowing
[5] = Example 2, 2 ml formulated per kg seed, 7 days after sowing
[6] = Example 2, 4 ml formulated per kg seed, 2 days after sowing
[7] = Example 2, 4 ml formulated per kg seed, 3 days after sowing
[8] = Example 2, 4 ml formulated per kg seed, 7 days after sowing
[9] = Example 2, 10 ml formulated per kg seed, 2 days after sowing
[10] = Example 2, 10 ml formulated per kg seed, 3 days after sowing
[11] = Example 2, 10 ml formulated per kg seed, 7 days after sowing
[12] = Example 2, 8 ml formulated per kg seed, 2 days after sowing
[13] = Example 2, 8 ml formulated per kg seed, 3 days after sowing
[14] = Example 2, 8 ml formulated per kg seed, 7 days after sowing
[15] = Example 2, 12 ml formulated per kg seed, 2 days after sowing
[16] = Example 2, 12 ml formulated per kg seed, 3 days after sowing
[17] = Example 2, 12 ml formulated per kg seed, 7 days after sowing
[18] = Example 2, 3.8 ml formulated per kg seed, 2 days after sowing
[19] = Example 2, 3.8 ml formulated per kg seed, 3 days after sowing
[20] = Example 2, 3.8 ml formulated per kg seed, 7 days after sowing

`O=CC=Cc1ccccc1` [cinnamaldehyde] was tested, and the “fecal pellets in comparison to the control” value ([1]; Example 2) was “equal number of fecal pellets”, the “number of plants present relative to untreated” value ([1]; Example 2) was “no significantly different results” and the “phytotoxic effect on the seeds” value ([1]; Example 2) was “phytotoxic effect on the seeds”. The “reduction of damaged seeds relative to the untreated control” value ([1]; Example 2) was “more than 50%”, the “result of seed treatment against slugs (conclusion)” value (shortened to “result of seed treatment”) ([1]; Example 2) was “does not result in the desired effect” and the “percentage of damaged seeds after 7 days” value ([1]; Example 2, 2 ml formulated per kg seed) was 63%. For the same compound, the “Mean number of damaged seeds per pot” value [1, 3] was 8.8, the “Mean number of dead slugs per pot” value [1, 3] was 0 and the “Mean number of damaged seeds per pot” value [1, 4] was 15.0. For the same compound, the “Mean number of dead slugs per pot” value [1, 4] was 0, the “Mean number of damaged seeds per pot” value [1, 5] was 25.0 and the “Mean number of dead slugs per pot” value [1, 5] was 0.5. The “percentage of damaged seeds after 7 days” value ([1]; Example 2, 4 ml formulated per kg seed) was 36%, the “Mean number of damaged seeds per pot” value [1, 6] was 5.0 and the “Mean number of dead slugs per pot” value [1, 6] was 0. For the same compound, the “Mean number of damaged seeds per pot” value [1, 7] was 8.8, the “Mean number of dead slugs per pot” value [1, 7] was 0 and the “Mean number of damaged seeds per pot” value [1, 8] was 14.3. For the same compound, the “Mean number of dead slugs per pot” value [1, 8] was 0.8, the “percentage of damaged seeds after 7 days” value ([1]; Example 2, 10 ml formulated per kg seed) was 39% and the “Mean number of damaged seeds per pot” value [1, 9] was 6.0. The “Mean number of dead slugs per pot” value [1, 9] was 0, the “Mean number of damaged seeds per pot” value [1, 10] was 10.5 and the “Mean number of dead slugs per pot” value [1, 10] was 0. The “Mean number of damaged seeds per pot” value [1, 11] was 15.8, the “Mean number of dead slugs per pot” value [1, 11] was 0.5 and the “number of damaged seeds relative to the untreated seed” value ([1]; Example 2) was “significant reduction in the number of damaged seeds”. The “Mean number of fecal pellets per pot” value ([1]; dosage 2 ml, 2 days) was 45, the “Mean number of plants present per pot” value ([1]; dosage 2 ml, 2 days) was 0 and the “Mean number of fecal pellets per pot” value ([1]; dosage 2 ml, 3 days) was 91. For the same compound, the “Mean number of plants present per pot” value ([1]; dosage 2 ml, 3 days) was 0, the “Mean number of fecal pellets per pot” value ([1]; dosage 2 ml, 7 days) was 124 and the “Mean number of plants present per pot” value ([1]; dosage 2 ml, 7 days) was 0. The “number of utilizable plants after 7 days” value ([1]; dosage 2 ml, 7 days) was 0, the “Mean number of fecal pellets per pot” value ([1]; dosage 4 ml, 2 days) was 28 and the “Mean number of plants present per pot” value ([1]; dosage 4 ml, 2 days) was 0. The “Mean number of fecal pellets per pot” value ([1]; dosage 4 ml, 3 days) was 58, the “Mean number of plants present per pot” value ([1]; dosage 4 ml, 3 days) was 0 and the “Mean number of fecal pellets per pot” value ([1]; dosage 4 ml, 7 days) was 82. For the same compound, the “Mean number of plants present per pot” value ([1]; dosage 4 ml, 7 days) was 0, the “number of utilizable plants after 7 days” value ([1]; dosage 4 ml, 7 days) was 0 and the “Mean number of fecal pellets per pot” value ([1]; dosage 10 ml, 2 days) was 42. For the same compound, the “Mean number of plants present per pot” value ([1]; dosage 10 ml, 2 days) was 0, the “Mean number of fecal pellets per pot” value ([1]; dosage 10 ml, 3 days) was 77 and the “Mean number of plants present per pot” value ([1]; dosage 10 ml, 3 days) was 0. For the same compound, the “Mean number of fecal pellets per pot” value ([1]; dosage 10 ml, 7 days) was 91, the “Mean number of plants present per pot” value ([1]; dosage 10 ml, 7 days) was 0 and the “number of utilizable plants after 7 days” value ([1]; dosage 10 ml, 7 days) was 0. The Percentage germinated ([2]; 2 ml formulated per kg seed) was 25%, the Percentage germinated ([2]; 4 ml formulated per kg seed) was 0% and the Percentage germinated ([2]; 10 ml formulated per kg seed) was 0%.
For `O=[N+]([O-])NC1=NCCN1Cc1ccc(Cl)nc1` [imidacloprid], the “result of seed treatment” value ([1]; Example 2) was “acceptable result”, the “percentage of damaged seeds after 7 days” value ([1]; Example 2, 8 ml formulated per kg seed) was 23% and the “Mean number of damaged seeds per pot” value [1, 12] was 4.8. For the same compound, the “Mean number of dead slugs per pot” value [1, 12] was 0, the “Mean number of damaged seeds per pot” value [1, 13] was 9.0 and the “Mean number of dead slugs per pot” value [1, 13] was 0. The “Mean number of damaged seeds per pot” value [1, 14] was 9.0, the “Mean number of dead slugs per pot” value [1, 14] was 1.0 and the “percentage of damaged seeds after 7 days” value ([1]; Example 2, 12 ml formulated per kg seed) was 12%. For the same compound, the “Mean number of damaged seeds per pot” value [1, 15] was 1.8, the “Mean number of dead slugs per pot” value [1, 15] was 0 and the “Mean number of damaged seeds per pot” value [1, 16] was 3.8. For the same compound, the “Mean number of dead slugs per pot” value [1, 16] was 0, the “Mean number of damaged seeds per pot” value [1, 17] was 4.8 and the “Mean number of dead slugs per pot” value [1, 17] was 0.8. The “number of fecal pellets per pot relative to the untreated control” value ([1]; Example 2) was “significant reduction in the number of fecal pellets”, the “plants present relative to the untreated seed” value ([1]; Example 2) was “significantly more plants present” and the “number of damaged seeds relative to the untreated seed” value ([1]; Example 2) was “significant reduction in the number of damaged seeds”. For the same compound, the “Mean number of fecal pellets per pot” value ([1]; dosage 8 ml, 2 days) was 6, the “Mean number of plants present per pot” value ([1]; dosage 8 ml, 2 days) was 7.8 and the “Mean number of fecal pellets per pot” value ([1]; dosage 8 ml, 3 days) was 17. For the same compound, the “Mean number of plants present per pot” value ([1]; dosage 8 ml, 3 days) was 12.3, the “Mean number of fecal pellets per pot” value ([1]; dosage 8 ml, 7 days) was 29 and the “Mean number of plants present per pot” value ([1]; dosage 8 ml, 7 days) was 18.3. For the same compound, the “number of utilizable plants after 7 days” value ([1]; dosage 8 ml, 7 days) was 13.5, the “Mean number of fecal pellets per pot” value ([1]; dosage 12 ml, 2 days) was 3 and the “Mean number of plants present per pot” value ([1]; dosage 12 ml, 2 days) was 16.0. The “Mean number of fecal pellets per pot” value ([1]; dosage 12 ml, 3 days) was 17, the “Mean number of plants present per pot” value ([1]; dosage 12 ml, 3 days) was 24.5 and the “Mean number of fecal pellets per pot” value ([1]; dosage 12 ml, 7 days) was 28. The “Mean number of plants present per pot” value ([1]; dosage 12 ml, 7 days) was 28.3, the “number of utilizable plants after 7 days” value ([1]; dosage 12 ml, 7 days) was 22.8 and the Percentage germinated ([2]; 2 ml formulated per kg seed) was 78%. The Percentage germinated ([2]; 4 ml formulated per kg seed) was 89%, the Percentage germinated ([2]; 8 ml formulated per kg seed) was 71% and the Percentage germinated ([2]; 12 ml formulated per kg seed) was 77%.
`CC1OC(C)OC(C)OC(C)O1` (centres unmarked) [metaldehyde] was tested, and the “dead slugs observed during the course of the experiment” value ([1]; Example 2) was “More dead slugs”, the “result of seed treatment” value ([1]; Example 2) was “good action against slugs” and the “percentage of damaged seeds after 7 days” value ([1]; Example 2, 3.8 ml formulated per kg seed) was 1%. For the same compound, the “Mean number of damaged seeds per pot” value [1, 18] was 0.5, the “Mean number of dead slugs per pot” value [1, 18] was 0.5 and the “Mean number of damaged seeds per pot” value [1, 19] was 0.3. The “Mean number of dead slugs per pot” value [1, 19] was 0.8, the “Mean number of damaged seeds per pot” value [1, 20] was 0.3 and the “Mean number of dead slugs per pot” value [1, 20] was 3.0. For the same compound, the “number of fecal pellets per pot relative to the untreated control” value ([1]; Example 2) was “significant reduction in the number of fecal pellets”, the “plants present relative to the untreated seed” value ([1]; Example 2) was “significantly more plants present” and the “number of damaged seeds relative to the untreated seed” value ([1]; Example 2) was “significant reduction in the number of damaged seeds”. For the same compound, the “Mean number of fecal pellets per pot” value ([1]; dosage 3.8 ml, 2 days) was 0, the “Mean number of plants present per pot” value ([1]; dosage 3.8 ml, 2 days) was 20.8 and the “Mean number of fecal pellets per pot” value ([1]; dosage 3.8 ml, 3 days) was 0. The “Mean number of plants present per pot” value ([1]; dosage 3.8 ml, 3 days) was 32.5, the “Mean number of fecal pellets per pot” value ([1]; dosage 3.8 ml, 7 days) was 5 and the “Mean number of plants present per pot” value ([1]; dosage 3.8 ml, 7 days) was 35.8. The “number of utilizable plants after 7 days” value ([1]; dosage 3.8 ml, 7 days) was 34.3, the Percentage germinated ([2]; 3.8 ml formulated per kg seed) was 56% and the Percentage germinated ([2]; 7.5 ml formulated per kg seed) was 31%. For the same compound, the Percentage germinated ([2]; 11 ml formulated per kg seed) was 48% and the Percentage germinated ([2]; 15 ml formulated per kg seed) was 8%.
